In the SangsterLogP compilation one finds logP data, which are given here for 14 compounds.

By logP is commonly meant the decadic logarithm of the partition coefficient of the neutral form, usually between octanol and water.

SMILES strings stand for the structures.

A short description of the series: method code SF, from Furst, W.; Becher, M. (1990). Homologues of 2-acetamido-4-nitropropoxybenzene (Falimint). I. Preparation, physicochemical and organoleptic properties. Pharmazie, 45(12)934-935.
In turn, `CCCCOc1ccc([N+](=O)[O-])cc1NC(C)=O` came in with a logP of 2.26.

Compound `CCCCCOc1ccc([N+](=O)[O-])cc1NC(C)=O` registered a logP of 2.67. `CCCCCCOc1ccc([N+](=O)[O-])cc1NC(C)=O` displayed a logP of 2.91. Consider `CCOc1ccc([N+](=O)[O-])cc1NC(=O)CC`, for which the logP came out at 1.85. In turn, `CCCCCCCC(=O)Nc1cc([N+](=O)[O-])ccc1OCCC` had a logP of 3.14. `CCCCCCCCCCCCOc1ccc([N+](=O)[O-])cc1NC(C)=O` gave a logP of 3.65. `CCCCCCCCOc1ccc([N+](=O)[O-])cc1NC(C)=O` came in with a logP of 3.18. With `CCCCCC(=O)Nc1cc([N+](=O)[O-])ccc1OCCC` the figure was 2.78. As for `CCCOc1ccc([N+](=O)[O-])cc1NC(C)=O`, the logP is 1.6. Regarding `CCCCCCCCCCCC(=O)Nc1cc([N+](=O)[O-])ccc1OCCC`, the logP came out at 3.48. In turn, `CCCOc1ccc([N+](=O)[O-])cc1NC(=O)CCC` came in with a logP of 2.4.

In turn, `CCCOc1ccc([N+](=O)[O-])cc1NC(=O)CC` returned a logP of 1.93. In turn, `COc1ccc([N+](=O)[O-])cc1NC(C)=O` registered a logP of 1.6.

Compound `CCCCCCCCCC(=O)Nc1cc([N+](=O)[O-])ccc1OCCC` came in with a logP of 3.3.
